Measured values taken from patent publication US20060083680A1, “Diphenyl ether derivatives and their use for imaging serotonin transporters” (The Trustees of the University of Pennsylvania, priority 2004, published 2006).
“And” between values parts separate entries of the source, which are not always exact repeats. Equal entries are not always repeated. “Also recorded” adds a separate entry of the source. Where two headings read alike, the source gives them in different places.

Key:
SERT binding sites [1] = target: T1, SERT binding sites (Rattus norvegicus, UniProt P31652); test: In vivo competitive binding / blocking of [^125I]4 regional uptake; conditions: rats, drug 2 mg/kg i.v. 5 min prior to tracer, 120 min after [^125I]4
T1 construct: from tissue; host or cells: rat brain in vivo (hypothalamus, cortex, striatum, hippocampus, cerebellum); ex vivo brain sections
Description: The reduction of regional specific binding in the drug-pretreated rats was compared to the control animals with saline pretreatment.

SERT binding sites [2] = target: T1, SERT binding sites; test: Ex vivo autoradiography of rat brain sections; type: in vivo, rats; conditions: rat, 2 mg/Kg 5 min prior to [^125I]4
[3] = target: T2, NET (norepinephrine transporter) (Homo sapiens, UniProt P23975); test: In vitro binding assay, membranes of LLC-PK1 cells expressing NET, [^125I]IPT
T2 construct: membrane homogenates
Procedure: (§1) Preparation of membrane homogenates: LLC-PK1 cells from pig kidney permanently expressing DAT, NET and SERT, respectively (LLC-DAT, LLC-NET and LLC-SERT) were kindly provided by Dr. G. Rudnick at Yale University. These cells were grown to confluence as a monolayer on 15 cm petri dish as reported previously. […] Cells were then washed once with phosphate buffer saline (w/ Ca^2+ and Mg^2+) (Bio-Whittaker) and harvested with 10 mL PBS by scraping. The cell suspensions were homogenized on ice for 20 strokes and centrifuged at 17,000 rpm for 20 min at 4° C. The pellets were re-suspended in PBS, frozen quickly in liquid N2 and stored in a −70° C. freezer.
(§2) Binding assays: Binding assays were performed in a final volume of 0.2 mL. […] Incubation was carried out for one h at room temperature and the bound ligand was collected on glass fiber filters (Schleicher & Schuell No. 25, Keene, N.H.) presoaked with 1% polyethylenimine (Sigma, St. Louis, Mo.) and counted in a gamma counter (Packard 5000). Results of competition experiments were subjected to nonlinear regression analysis using EBDA (Elsevier-BIOSOFT, Cambridge, UK).

[4] = target: T3, DAT (dopamine transporter) (Rattus norvegicus, UniProt P23977); test: In vitro binding assay, membranes of LLC-PK1 cells expressing DAT, [^125I]IPT
T3 construct: membrane homogenates
Procedure: as §1, §2

[5] = target: T4, SERT (serotonin transporter) (Rattus norvegicus, UniProt P31652); test: In vitro binding assay, membranes of LLC-PK1 cells expressing SERT, [^125I]IDAM
T4 construct: membrane homogenates
Procedure: as §1, §2

serotonin transporters = target: T5, serotonin transporters (Rattus norvegicus, UniProt P31652); test: Regional brain distribution and specific binding ratio in rats; type: in vivo
T5 construct: from tissue; host or cells: rat brain in vivo (hypothalamus, cortex, striatum, hippocampus, cerebellum); ex vivo brain sections
Procedure: Regional brain distribution in rats was measured after an i.v. injection of the radioactive tracer. Samples from different brain regions: cortex (frontal plus occipital), striatum, hippocampus, cerebellum and hypothalamus were dissected, weighed and counted. The percentage dose/g of each sample was calculated by comparing sample counts with the counts of the diluted initial dose described above. The specific binding ratio in each region was obtained by dividing the % dose/gram values between region by that in the cerebellum ([region-cerebellum/cerebellum]). The cerebellum region containing little or no serotonin transporters was used as the background region.

[6] = Biodistribution in rats after iv injection (organs); type: in vivo
Procedure: Biodistribution in rats: Three rats per group were used for each biodistribution study. While under ether anesthesia, 0.2 mL of a saline solution containing 10 μCi of radioactive tracer was injected into the femoral vein. The rats were sacrificed at the time indicated by cardiac excision while under ether anesthesia. Organs of interest were removed and weighed, and the radioactivity was counted. The percent dose per organ was calculated by a comparison of the tissue counts to counts of 1% of the initial dose (100 times diluted aliquots of the injected material) measured at the same time.

[7] = Partition coefficient 1-octanol/buffer; type: physicochemical; conditions: 1-octanol/buffer pH 7.4, 0.1 M phosphate
Procedure: The test tube was vortexed for 3 min at room temperature, then centrifuged for 5 min. Two weighed samples (2 g each) from the 1-octanol and buffer layers were counted in a well counter. The partition coefficient was determined by calculating the ratio of cpm/g of 1-octanol to that of buffer. Samples from the 1-octanol layer were re-partitioned until consistent partition coefficient values were obtained. The measurement was repeated 3 times.

[8] = Stability of the radioactive material
[9] = LLC-PK1 cells expressing SERT, read-out: Ki SERT

T3 sequence (P23977 whole entry): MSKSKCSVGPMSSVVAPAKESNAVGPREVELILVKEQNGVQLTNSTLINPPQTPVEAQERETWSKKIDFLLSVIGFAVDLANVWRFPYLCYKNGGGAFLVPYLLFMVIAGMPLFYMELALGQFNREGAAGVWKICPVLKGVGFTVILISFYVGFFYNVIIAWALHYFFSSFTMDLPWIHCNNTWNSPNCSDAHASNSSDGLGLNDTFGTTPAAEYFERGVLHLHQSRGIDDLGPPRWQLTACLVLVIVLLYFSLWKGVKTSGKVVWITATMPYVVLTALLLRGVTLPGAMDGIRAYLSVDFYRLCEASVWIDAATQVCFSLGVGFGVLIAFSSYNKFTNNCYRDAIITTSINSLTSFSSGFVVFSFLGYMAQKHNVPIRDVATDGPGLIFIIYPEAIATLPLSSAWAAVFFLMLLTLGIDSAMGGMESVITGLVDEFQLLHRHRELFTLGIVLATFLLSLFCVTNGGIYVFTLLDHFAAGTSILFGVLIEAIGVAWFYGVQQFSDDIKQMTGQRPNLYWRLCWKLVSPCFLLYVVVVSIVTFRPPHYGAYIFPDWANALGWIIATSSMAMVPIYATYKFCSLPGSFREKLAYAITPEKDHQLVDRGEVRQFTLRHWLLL
T2 sequence (P23975 whole entry): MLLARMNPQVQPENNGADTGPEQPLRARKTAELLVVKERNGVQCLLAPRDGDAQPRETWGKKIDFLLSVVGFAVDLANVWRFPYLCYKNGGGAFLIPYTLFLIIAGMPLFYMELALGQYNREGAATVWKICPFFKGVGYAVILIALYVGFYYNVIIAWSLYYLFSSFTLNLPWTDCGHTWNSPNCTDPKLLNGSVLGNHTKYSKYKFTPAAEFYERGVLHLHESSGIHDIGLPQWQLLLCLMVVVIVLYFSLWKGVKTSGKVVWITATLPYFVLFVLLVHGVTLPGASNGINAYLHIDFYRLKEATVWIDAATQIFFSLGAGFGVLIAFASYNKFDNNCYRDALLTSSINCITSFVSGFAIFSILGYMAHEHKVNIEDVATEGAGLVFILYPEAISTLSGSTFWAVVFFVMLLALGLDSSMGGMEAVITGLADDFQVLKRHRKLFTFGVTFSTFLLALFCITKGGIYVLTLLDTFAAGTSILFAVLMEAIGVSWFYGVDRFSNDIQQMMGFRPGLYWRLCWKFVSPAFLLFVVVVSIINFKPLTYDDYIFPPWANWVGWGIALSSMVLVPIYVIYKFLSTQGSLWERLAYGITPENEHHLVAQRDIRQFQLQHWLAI
T4 sequence (P31652 whole entry): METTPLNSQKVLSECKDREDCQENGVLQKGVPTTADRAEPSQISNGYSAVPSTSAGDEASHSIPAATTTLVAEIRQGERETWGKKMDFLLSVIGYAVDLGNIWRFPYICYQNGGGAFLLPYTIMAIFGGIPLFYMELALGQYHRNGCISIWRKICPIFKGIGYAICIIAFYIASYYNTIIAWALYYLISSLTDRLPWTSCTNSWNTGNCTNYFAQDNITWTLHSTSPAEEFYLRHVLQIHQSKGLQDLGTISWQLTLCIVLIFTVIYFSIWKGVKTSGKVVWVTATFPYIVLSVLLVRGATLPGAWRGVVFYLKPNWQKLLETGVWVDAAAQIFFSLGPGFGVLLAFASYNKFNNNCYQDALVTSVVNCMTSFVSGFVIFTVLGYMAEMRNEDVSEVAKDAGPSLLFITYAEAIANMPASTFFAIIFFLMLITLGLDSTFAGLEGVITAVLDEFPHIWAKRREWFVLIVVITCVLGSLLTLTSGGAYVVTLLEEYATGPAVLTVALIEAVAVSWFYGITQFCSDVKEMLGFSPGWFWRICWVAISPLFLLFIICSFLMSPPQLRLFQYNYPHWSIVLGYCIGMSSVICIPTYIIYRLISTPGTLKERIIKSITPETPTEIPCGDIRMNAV
T5 sequence (P31652 whole entry): as above
T1 sequence (P31652 whole entry): as above

Compound: CSc1ccc([C@@H]2CN3CCC[C@@H]3c3ccccc32)cc1 [(+)McN5652]
- effect of pretreatment on specific binding/uptake of [^125I]4 in hypothalamus (SERT binding sites [1]): completely eliminated the specific binding; also recorded: significantly blocked
- effect of pretreatment on specific uptake of [^125I]4 in brain regions (autoradiography) (SERT binding sites [2]): totally eliminated

Compound: CN(C)Cc1ccccc1Sc1ccc(I)cc1CO [Compound 1, reference compound]
- Ki [3]: 234 ± 26 nM
- Ki [4]: > 1000 nM
- Ki [5, 9]: 0.097 ± 0.013 nM

Compound: CN(C)Cc1ccccc1Oc1ccc(I)cc1CO [Compound 2, reference compound]
- Ki [3]: 20 ± 2 nM
- Ki [4]: > 1000 nM

Compound: CN(C)Cc1ccccc1Oc1ccc(I)cc1N [Compound 4, 2-(2-(Dimethylaminomethyl)phenoxy)-5-iodophenylamine]
- hypothalamus uptake compared to other radioiodinated compounds (serotonin transporters; 60-240 min post i.v. injection): highest hypothalamus uptake among all of the radioiodinated compounds
- higher uptake in hypothalamus than ADAM (3) (serotonin transporters; between 2 and 4 h): more than 200%
- Regional brain distribution HY (hypothalamus) (serotonin transporters; iv, 120 min): 0.92 % dose/g
- Regional brain distribution HY (hypothalamus) (serotonin transporters; iv, 240 min): 0.32 % dose/g
- Ki [3]: 286 ± 36 nM
- increase in brain uptake vs ADAM (3) ([6]; 2 and 4 h after i.v. injection): two to three-fold increase
- brain uptake ([6]; 2 h after i.v. injection): 1.08 % dose/brain
- brain uptake ([6]; 4 h after i.v. injection): 0.33 % dose/brain
- Partition coefficient [7]: 418
- Ki [4]: 309 ± 65 nM
- Ki [5]: 0.37 ± 0.11 nM
- selectivity for SERT over NET and DAT [5]: more than 500 fold

Compound: CN(C)Cc1ccccc1Cc1ccc(I)cc1N [Compound 5, 2-(2-(dimethylaminomethyl)benzyl)-5-iodophenylamine]
- Ki [3]: 17 ± 4 nM
- Ki [4]: > 1000 nM
- Ki [5, 9]: 48.6 ± 4.1 nM

Compound: CN(C)Cc1ccccc1Sc1ccc(C#N)cc1N [DASB, reference compound]
- Ki [4]: > 1000 nM
- Ki [5, 9]: 1.1 ± 0.04 nM

Compound: CN(C)Cc1ccccc1Oc1ccc([125I])cc1N [[^123I]4, [^125I][^123I]2-(2-(Dimethylaminomethyl)phenoxy)-5-iodophenylamine]
- stability after labeling ([8]; after labeling): 24 h

Compound: CN(C)Cc1ccccc1Cc1ccc([125I])cc1N [[^125I]5, 2-(2-(Dimethylaminomethyl)benzyl)-5-[^125I]iodophenylamine]
- Ratio of (Region-Cerebellum)/Cerebellum, HY (serotonin transporters; iv, 120 min): 2.43
- stability in a refrigerator ([8]; refrigerator): stable in a refrigerator at least for three weeks
- brain uptake ([6]; 2 min post-injection): 1.77 % dose and 1.77±0.049 % dose
- Partition coefficient [7]: 1,730

Compound: CN(C)Cc1ccccc1Sc1ccc([125I])cc1N [[^125I]ADAM (3), reference compound]
- Partition coefficient [7]: 335

Compound: O=C(c1ccc(F)cc1)C1CCN(CCn2c(=O)[nH]c3ccccc3c2=O)CC1 [ketanserin]
- effect of pretreatment on specific binding/uptake of [^125I]4 in hypothalamus (SERT binding sites [1]): did not show any significant effect

Compound: COC(=O)C(c1ccccc1)C1CCCCN1 (stereo not drawn) [methylphenidate]
- effect of pretreatment on specific binding/uptake of [^125I]4 in hypothalamus (SERT binding sites [1]): did not show any significant effect

Compound: CCN1CCC[C@H]1CNC(=O)c1c(O)c(Cl)cc(Cl)c1OC [raclopride]
- effect of pretreatment on specific binding/uptake of [^125I]4 in hypothalamus (SERT binding sites [1]): did not show any significant effect
